According to patent US11111243B2, “Azaindole compounds as histone methyltransferase inhibitors” (GLOBAL BLOOD THERAPEUTICS, INC., priority 2017, dated 2021):
Structures can show the parent of a compound that is named as a salt.

Experiments:
[1] = molecular target: T1, G9a (Homo sapiens, UniProt Q96KQ7); test: G9a AlphaLISA enzymatic activity assay; format: biochemical; conditions: 0.15 nM G9a, 10 uM S-adenosyl-methionine, 100 nM biotinylated histone 3 peptide (1-21), 1 h room temperature
T1 sequence (Q96KQ7 1-1210): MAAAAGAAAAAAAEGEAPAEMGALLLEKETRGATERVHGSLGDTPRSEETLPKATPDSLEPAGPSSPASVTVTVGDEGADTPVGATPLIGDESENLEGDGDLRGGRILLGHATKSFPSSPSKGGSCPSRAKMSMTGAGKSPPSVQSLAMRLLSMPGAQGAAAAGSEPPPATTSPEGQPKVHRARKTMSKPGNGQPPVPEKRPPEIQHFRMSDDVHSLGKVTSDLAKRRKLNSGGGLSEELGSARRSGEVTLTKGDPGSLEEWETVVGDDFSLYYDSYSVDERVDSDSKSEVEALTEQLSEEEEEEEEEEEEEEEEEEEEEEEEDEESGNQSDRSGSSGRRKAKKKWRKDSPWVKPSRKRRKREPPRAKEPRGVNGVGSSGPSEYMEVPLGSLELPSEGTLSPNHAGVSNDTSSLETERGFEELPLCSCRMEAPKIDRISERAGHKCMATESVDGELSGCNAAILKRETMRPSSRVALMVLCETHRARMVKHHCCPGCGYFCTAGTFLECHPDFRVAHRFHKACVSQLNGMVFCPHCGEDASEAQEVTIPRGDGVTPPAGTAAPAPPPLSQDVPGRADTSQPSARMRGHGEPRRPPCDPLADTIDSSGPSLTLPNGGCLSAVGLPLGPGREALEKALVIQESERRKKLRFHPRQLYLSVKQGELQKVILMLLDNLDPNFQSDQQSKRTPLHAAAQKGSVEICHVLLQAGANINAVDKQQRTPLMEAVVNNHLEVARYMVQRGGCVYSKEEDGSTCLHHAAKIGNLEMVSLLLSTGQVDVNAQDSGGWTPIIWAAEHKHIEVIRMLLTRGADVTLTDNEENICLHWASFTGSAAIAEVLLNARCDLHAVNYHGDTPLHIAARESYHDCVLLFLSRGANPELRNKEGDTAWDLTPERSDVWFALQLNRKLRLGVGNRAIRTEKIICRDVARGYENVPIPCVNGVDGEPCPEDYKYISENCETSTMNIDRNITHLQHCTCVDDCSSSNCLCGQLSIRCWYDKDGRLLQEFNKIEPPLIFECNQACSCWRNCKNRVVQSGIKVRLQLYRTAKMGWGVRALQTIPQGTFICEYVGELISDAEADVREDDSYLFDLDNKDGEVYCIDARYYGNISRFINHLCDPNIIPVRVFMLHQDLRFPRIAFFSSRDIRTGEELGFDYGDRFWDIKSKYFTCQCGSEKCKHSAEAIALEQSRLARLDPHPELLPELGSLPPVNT
How it was run: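 Reaction of 0.15 nM G9a with 10 uM SAM and 100 nM biotinylated histone H3 (1-21) peptide in 50 mM Tris-HCl pH9, 50 mM NaCl, 0.01% Tween-20, 1 mM DTT, 1 h at room temperature. H3K9me2 detected by AlphaLISA (anti-H3K9me2 acceptor, streptavidin donor beads, 615 nm); IC50 from percent inhibition across dilutions.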

[2] = test system: bone marrow CD34+ hematopoietic cells; conditions: human
Procedure: Cryopreserved bone marrow CD34^+ hematopoietic cells obtained from healthy adult human donors were used for all studies. A 21 day ex vivo serum free culture system was utilized that consists of two phases. In culture phase I (culture days 1-7), CD34^+ cells were placed in media containing StemPro-34 complete media (1-glutamine, pen-strep and StemPro-34 nutrient supplement) (Invitrogen, Carlsbad, Calif.) supplemented with 50 ng/mL SCF (HumanZyme, Chicago, Ill.), 50 ng/mL FLT3-Ligand (HumanZyme) and 10 ng/mL IL-3 (HumanZyme). During the first phase of culture (days 0-7), the CD34^+ cells differentiate into progenitor cell populations that include erythroblasts. After 7 days, the cells were transferred to erythropoietin (EPO; Stemcell) supplemented medium (phase 2; culture days 7-21) which is comprised of the following: StemPro-34 complete medium, 4 U/mL EPO, 3 μM mifepristone (Sigma Aldrich, St. Louis, Mo.), 10 μg/mL insulin (Sigma Aldrich), 3 U/mL heparin (Sigma Aldrich) and 0.8 mg/mL holo transferrin (Sigma Aldrich). […]
Expression levels of α-, β- and γ-globin genes are assessed by quantitative PCR analyses. HbF protein levels are assessed by the human Hemoglobin F enzyme-linked immunosorbent assay (ELISA) Quantitation Kit (Bethyl Laboratory, Montgomery, Tex., USA). Percentages of cells expressing HbF are assessed by flow cytometry analysis. […]

Row | IC50 [1] [nM] | Compound | Fold Induction [2] [fold]
1 | 12 | COc1cc2c(cc1OCCCN1CCCC1)[nH]c1c(C)cnc(N3CCCC3)c12 [Compound 89, 1-{8-methoxy-4-methyl-7-[3-(pyrrolidin-1-yl)propoxy]-5H-pyrido[4,3-b]indol-1-yl}pyrrolidine hydrochloride] | –
2 | 7.1 | COc1cc2c(cc1OCCCN(C)C)[nH]c1ccnc(C)c12 [Compound 90, [3-({8-methoxy-1-methyl-5H-pyrido[4,3-b]indol-7-yl}oxy)propyl]dimethylamine hydrochloride] | –
3 | 6.7 | CCc1nccc2[nH]c3cc(OCCCN(C)C)c(OC)cc3c12 [Compound 91, [3-({1-ethyl-8-methoxy-5H-pyrido[4,3-b]indol-7-yl}oxy)propyl]dimethylamine hydrochloride] | –
4 | 51 | COc1cc2c(cc1OCCCN(C)C)[nH]c1ccnc(N3CCCC3)c12 [Compound 92, (3-{[8-methoxy-1-(pyrrolidin-1-yl)-5H-pyrido[4,3-b]indol-7-yl]oxy}propyl)dimethylamine hydrochloride] | –
5 | 61 | COc1cc2c(cc1OCCCN(C)C)[nH]c1ccnc(N(C)C)c12 [Compound 93, 7-[3-(dimethylamino)propoxy)-8-methoxy-N,N-dimethyl-5H-pyrido[4,3-b]indol-1-amine hydrochloride] | –
6 | 54 | COc1cc2c3cnccc3n(C)c2cc1OCCCN1CCCC1 [Compound 94, 1-[3-({8-methoxy-5-methyl-5H-pyrido[4,3-b]indol-7-yl}oxy)propyl]pyrrolidine hydrochloride] | –
7 | 560 | COc1cc2c(cc1OCCCN(C)C)[nH]c1ccnc(SC)c12 [Compound 95, (3-{[8-methoxy-1-(methylsulfanyl)-5H-pyrido[4,3-b]indol-7-yl]oxy}propyl)dimethylamine hydrochloride] | –
8 | 3300 | COCCOc1nccc2[nH]c3cc(OCCCN4CCCC4)c(OC)cc3c12 [Compound 96, 1-(3-{[8-methoxy-1-(2-methoxyethoxy)-5H-pyrido[4,3-b]indol-7-yl]oxy}propyl)pyrrolidine trifluoroacetate] | –
9 | 68 | COc1cc2c(cc1OCCCN1CCCC1)[nH]c1ccnc(O)c12 [Compound 97, 8-methoxy-7-(3-(pyrrolidin-1-yl)propoxy)-5H-pyrido[4,3-b]indol-1-ol trifluoroacetate] | –
10 | 2800 | COc1cc2c(cc1OCCCN1CC3CC(C3)C1)[nH]c1ccncc12 [Compound 98, 3-[3-({8-methoxy-5H-pyrido[4,3-b]indol-7-yl}oxy)propyl]-3-azabicyclo[3.1.1]heptane hydrochloride] | –
11 | 16 | COc1cc2c(cc1OCCCN1CCCC1)[nH]c1cc(C)ncc12 [Compound 99, 1-[3-({8-methoxy-3-methyl-5H-pyrido[4,3-b]indol-7-yl}oxy)propyl]pyrrolidine hydrochloride] | –
12 | 380 | COc1cc2c(cc1OCCCN1CCCC1)[nH]c1ccnc(OC)c12 [Compound 100, 1-[3-({1,8-dimethoxy-5H-pyrido[4,3-b]indol-7-yl}oxy)propyl]pyrrolidine hydrochloride] | –
13 | 120 | COc1cc2c(cc1OCCCN1CCCC1)[nH]c1cc(C3CC3)ncc12 [Compound 101, 1-[3-({3-cyclopropyl-8-methoxy-5H-pyrido[4,3-b]indol-7-yl}oxy)propyl]pyrrolidine hydrochloride] | –
14 | 140 | CCN(CC)CCCOc1cc2[nH]c3ccnc(C4CC4)c3c2cc1OC [Compound 102, [3-({1-cyclopropyl-8-methoxy-5H-pyrido[4,3-b]indol-7-yl}oxy)propyl]diethylamine hydrochloride] | –

Row | Compound | IC50 [1] [nM] | Fold Induction [2] [fold]
15 | COc1cc2c(cc1OCCCN1CCCC1)[nH]c1ccnc(C3=CCNCC3)c12 [Compound 66, 4-{8-methoxy-7-[3-(pyrrolidin-1-yl)propoxy]-5H-pyrido[4,3-b]indol-1-yl}-1,2,3,6-tetrahydropyridine bishydrochloride] | 5.6 | 1.3
